From ChEMBL document CHEMBL4316623, “Phosphonodiamidate prodrugs of N-alkoxy analogs of a fosmidomycin surrogate as antimalarial and antitubercular agents” (Bioorg Med Chem Lett, 2019)

Key:
[1] = Selectivity index, ratio of CC50 for human MRC5 cells to IC50 for Mycobacterium tuberculosis H37Ra ATCC 25177 harboring lux gene; type: toxicity; conditions: read-out: Ratio CC50/IC50
[2] = system: Mycobacterium tuberculosis; experiment: Antitubercular activity against Mycobacterium tuberculosis H37Ra ATCC 25177 harboring lux gene measured after 7 days by luminometric method; type: functional, organism-based; conditions: H37Ra ATCC 25177, 168 h

| Compound | selectivity ratio [1] | IC50 [2] [µM] |
| --- | --- | --- |
| CCOC(=O)[C@H](CC(C)C)NP(=O)(CCCC(=O)N(C)O)N[C@@H](CC(C)C)C(=O)OCC | > 2.2 | 29.4 |
| NNC(=O)c1ccncc1 [ISONIAZID] |  | 0.21 |
| CCOC(=O)[C@H](CC(C)C)NP(=O)(CCCC(=O)N(C)OCc1ccc(C(C)C)cc1)N[C@@H](CC(C)C)C(=O)OCC | 0.15 | 49.1 |
| CCOC(=O)[C@H](CC(C)C)NP(=O)(CCCC(=O)N(C)OCc1ccc(Cl)cc1)N[C@@H](CC(C)C)C(=O)OCC | 0.37 | 49 |
| CCOC(=O)[C@H](CC(C)C)NP(=O)(CCCC(=O)N(C)OCc1ccccc1)N[C@@H](CC(C)C)C(=O)OCC |  | > 64 |
| CCOC(=O)[C@H](CC(C)C)NP(=O)(CCCC(=O)N(C)OCc1ccc(-c2ccccc2)cc1)N[C@@H](CC(C)C)C(=O)OCC | 0.17 | 35.2 |
| CCOC(=O)[C@H](CC(C)C)NP(=O)(CCCC(=O)N(C)OCc1ccc2ccccc2c1)N[C@@H](CC(C)C)C(=O)OCC | 0.11 | 48.2 |
| CCOC(=O)[C@H](CC(C)C)NP(=O)(CCCC(=O)N(C)OCCCCc1ccccc1)N[C@@H](CC(C)C)C(=O)OCC | 0.14 | 50.3 |
| CCOC(=O)[C@H](CC(C)C)NP(=O)(CCCC(=O)N(C)OCCCc1ccccc1)N[C@@H](CC(C)C)C(=O)OCC |  | > 64 |
